Assay results taken from US9040715B2 (priority 2008, dated 2015).
Converted amounts (≈) assume the structure as drawn.

Experiments:
Aspergillus fumigatus = experiment: Anti-fungal/anti-yeast activity: MIC50 (broth microdilution) and MFC; format: cell-based
How it was run: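 Broth microdilution per CLSI M27-A2 in RPMI-1640, compounds at final 0.2-100 μg/ml; inoculum 1.0×10^3 cells/well for Candida, 2.0×10^3 for Aspergillus, from 24 h YPD cultures at 30° C. Growth read visually and at 550 nm at 24 and 48 h; MIC50 = lowest concentration giving ≥50% growth reduction vs control.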

Candida albicans (CAF-2) = experiment: as above; format: cell-based; details: for MIC: read-out: MIC-50
How it was run: (§1)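 Cells grown 24 h on YPD at 30° C were seeded into RPMI-1640 holding compound (0.2-100 μg/ml final) at 1.0×10^3 Candida or 2.0×10^3 Aspergillus cells per well. After 24 and 48 h, growth was scored by eye and at 550 nm. Wells from 48 h were then plated on YPD for 48 h at 30° C to obtain MFC.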

Candida apicola = experiment: as above; format: cell-based; details: for Activity (fungicidal/fungistatic) / MIC-50 / Ratio MFC/MIC: Candida apicola; for MFC: Starmerella apicola
How it was run: as §1

Candida glabrata = experiment: as above; format: cell-based; details: for Activity (fungicidal/fungistatic) / Ratio MFC/MIC: Candida glabrata; for MFC / MIC: Nakaseomyces glabratus; for MIC: read-out: MIC-50
How it was run: as §1

Candida lusitaniae = experiment: as above; format: cell-based; details: for Activity (fungicidal/fungistatic) / Ratio MFC/MIC: Candida lusitaniae; for MFC / MIC: Clavispora lusitaniae; for MIC: read-out: MIC-50
How it was run: as §1

Candida tropicalis = experiment: as above; format: cell-based; details: for MIC: read-out: MIC-50
How it was run: as §1

Candidia parapsilosis = experiment: as above; format: cell-based; details: for Activity (fungicidal/fungistatic) / Ratio MFC/MIC: Candidia parapsilosis; for MIC: read-out: MIC-50
How it was run: as §1

[1] = test system: Saccharomyces cerevisiae (YPH501); experiment: as above; format: cell-based; details: for MFC / MIC: Saccharomyces cerevisiae; for Activity (fungicidal/fungistatic) / Ratio MFC/MIC: Saccharomyces cerevisiae (YPH501); for MIC: read-out: MIC-50
C. albicans Mutants = experiment: MIC50 in C. albicans mutant strains; format: cell-based; details: Candida albicans
Procedure: (§2) The minimum inhibitory concentrations resulting in 50% growth inhibition (MIC50) of […] Candida species (C. albicans, C. tropicalis and C. glabrata, C. lusitaniae, C. parapsilosis, and C. apicola) as well as Aspergillus fumigatus to a set of novel synthetic compounds was determined in accordance with the guidelines in CLSI document M27-A2 (Clinical and Laboratory Standards Institute; Wayne, Pa.). The total volume of cells and drug was 100 μL per microtiter well, and each drug was diluted in RPMI to achieve final concentrations of 0.2-100 μg/ml. Uninoculated cultures were used as a reference standard. Stock inoculum suspensions were prepared from 24 hour cultures on YPD (yeast extract/peptone/dextrose) media at 30° C. For MIC determinations, an inoculum of 1.0×10^3 cells of Candidia and 2.0×10^3 cells of Aspergillus per well were used, and cells in diluted drugs were prepared in RPMI-1640 medium. MICs were determined both visually and spectrophotometrically at 24 hours and 48 h at 550 nm using a micro plate reader. The MIC50 endpoint was measured as the lowest drug concentration resulting in a reduction of growth of 50% or more compared with growth of the control.
(§3) The MIC50 of Compounds I-1, I-2, and I-5 in several mutant strains of Candida albicans, including fluconazole resistant clinical strains, was determined according to the methods described in Example 1 (see Table 9). The activity of Compound I-1 against fluconazole resistant strains was further explored (see Table 10). In Table 10, Strain #1 is a fluconazole sensitive Candida albicans strain; Strain #17 is a fluconazole resistant Candida albicans strain; C. albicans CS#01 is a first clinical strain; C. albicans CS#02 is a second clinical strain.

Huh7 cells = experiment: Neutral red uptake assay (cytotoxicity); format: cell-based, human
Source text: The neutral red uptake assay is a cytotoxicity test that is based on the ability of viable cells to incorporate and bind the supra-vital dye neutral red in the lysosomes. This weakly cationic dye penetrates cell membranes by non-ionic passive diffusion and concentrates in the lysosomes, where it binds by electrostatic hydrophobic bonds to anionic and phosphate groups of the lysosomal matrix. The dye is then extracted from the viable cells using an acidified ethanol solution, and the absorbance of the solubilized dye is read. When the cell dies or the pH gradient is reduced, the dye is not retained and consequently, the amount of retained dye is proportional to the number of viable cells. Most primary cells and cell lines can be used for this method. The HepG2 and Huh7, two human hepatoma cell lines, were used for this study. The cells were seeded in 96-well tissue culture plates and treated for 48 hours with the compounds. The plates were then incubated for 2 hours with a medium containing neutral red. The cells were subsequently washed, the dye was extracted in each well, and the absorbance was read using a spectrophotometer (FIG. 3 and Table 11).

Huh7 or HepG2 cell line = experiment: MTT assay (cytotoxicity); format: cell-based, human; details: 24 hours and 48 hours
Procedure: The MTT assay is a colorimetric assay that measures the reduction of yellow 3-(4,5-dimethylhiazol-2-yl)-2,5-diphenyl tetrazolium bromide (MTT) by mitochondrial succinate dehydrogenase. The MTT enters the cells and passes into the mitochondria where it is reduced to an insoluble, dark purple, formazan product. The cells are then solubilized with an organic solvent (e.g., isopropanol) and the released, solubilized formazan reagent is measured spectrophotometrically. Since reduction of MTT can only occur in metabolically active cells, the level of activity is a measure of the viability of the cells.
Cells of the Huh7 or HepG2 cell line were seeded in a 96 well plate. The plate was incubated overnight at 37° C. in a humidified incubator, 5% CO2. The test compounds were added to the plate. Different concentrations of drug were tested in triplicate along with a negative control. The final volume was adjusted to 100 μl per well. The plate was incubated overnight at 37° C. in a humidified incubator, 5% CO2. After 24 hours and 48 hours, MTT reagent (5 mg/ml, 10 μl/100 μl per well of the 96 well plate) was added and incubated at 37° C. for 3 hours. After 3 hours, 100 μl of the DMSO solution was added to each well and the plate was rocked at room temperature for 1 hour. The plate was then read on a plate reader at […].

[2] = test system: Fluconazole Resistant C. albicans; experiment: microbe, parasite or virus in culture; format: cell-based; details: Candida albicans
Procedure: as §2, §3

O=C(Cn1sc2ccccc2c1=O)Nc1ccccc1Oc1ccccc1 [Compound I-2]
Activity (fungicidal/fungistatic) (Aspergillus fumigatus): fungistatic (an MFC/MIC ratio of greater than four indicates that the compound is fungistatic)
MFC (Aspergillus fumigatus): 50 µg/mL
MIC50 (Aspergillus fumigatus): 12.5 µg/mL
Ratio MFC/MIC (Aspergillus fumigatus): 4
Activity (fungicidal/fungistatic) (Candida albicans (CAF-2)): fungicidal (An MFC/MIC ratio of less than four indicates that the compound is fungicidal)
MFC (Candida albicans (CAF-2)): 3.2 µg/mL
Ratio MFC/MIC (Candida albicans (CAF-2)): 1
MIC (Candida albicans (CAF-2)): 3.2 µg/mL
Activity (fungicidal/fungistatic) (Candida apicola): fungicidal (An MFC/MIC ratio of less than four indicates that the compound is fungicidal)
MIC-50 (Candida apicola): 6.4 µg/mL
Ratio MFC/MIC (Candida apicola): 1
MFC (Candida apicola): 6.4 µg/mL
Activity (fungicidal/fungistatic) (Candida glabrata): fungicidal (An MFC/MIC ratio of less than four indicates that the compound is fungicidal)
Ratio MFC/MIC (Candida glabrata): 2
MFC (Candida glabrata): 3.2 µg/mL
MIC (Candida glabrata): 1.6 µg/mL
Activity (fungicidal/fungistatic) (Candida lusitaniae): fungicidal (An MFC/MIC ratio of less than four indicates that the compound is fungicidal)
Ratio MFC/MIC (Candida lusitaniae): 2
MFC (Candida lusitaniae): 3.2 µg/mL
MIC (Candida lusitaniae): 1.6 µg/mL
Activity (fungicidal/fungistatic) (Candida tropicalis): fungicidal (An MFC/MIC ratio of less than four indicates that the compound is fungicidal)
MFC (Candida tropicalis): 3.2 µg/mL
Ratio MFC/MIC (Candida tropicalis): 1
MIC (Candida tropicalis): 3.2 µg/mL
MFC (Candidia parapsilosis): 3.2 µg/mL
Activity (fungicidal/fungistatic) (Candidia parapsilosis): fungicidal (An MFC/MIC ratio of less than four indicates that the compound is fungicidal)
Ratio MFC/MIC (Candidia parapsilosis): 2
MIC (Candidia parapsilosis): 1.6 µg/mL
MFC [1]: 3.2 µg/mL (≈ 8.5 µM)
Activity (fungicidal/fungistatic) [1]: fungicidal (An MFC/MIC ratio of less than four indicates that the compound is fungicidal)
Ratio MFC/MIC [1]: 2
MIC [1]: 1.6 µg/mL (≈ 4.25 µM)
MIC50 (C. albicans Mutants; C. albicans strain CAF-2): 3 µg/mL (≈ 7.97 µM)
MIC50 (C. albicans Mutants; C. albicans strain CHK11): 12.5 µg/mL (≈ 33.2 µM)
MIC50 (C. albicans Mutants; C. albicans strain CHK21): > 100 µg/mL
MIC50 (C. albicans Mutants; C. albicans strain CHK23): 25 µg/mL (≈ 66.4 µM)
MIC50 (C. albicans Mutants; C. albicans strain GOA31): 3 µg/mL (≈ 7.97 µM)
MIC50 (C. albicans Mutants; C. albicans strain GOA32): 3 µg/mL (≈ 7.97 µM)
Percentage Viability (Huh7 cells; 3.3 μg/mL (approx 1X MIC)): >100%
Percentage Viability (Huh7 cells; 10 μg/mL (approx 3X MIC)): >100%
Percentage Viability (Huh7 cells; 33 μg/mL (approx 10X MIC)): >100%
Percentage Viability (Huh7 cells; 100 μg/mL (approx 30X MIC)): 75%
Toxicity to mammalian cell lines (MTT assay) (Huh7 or HepG2 cell line): minimally toxic

CN(Cc1ccccc1)C(=O)Cn1sc2ccccc2c1=O [Compound I-1]
Activity (fungicidal/fungistatic) (Aspergillus fumigatus): fungistatic (an MFC/MIC ratio of greater than four indicates that the compound is fungistatic)
MFC (Aspergillus fumigatus): 100 µg/mL
MIC50 (Aspergillus fumigatus): 25 µg/mL
Ratio MFC/MIC (Aspergillus fumigatus): 4
Activity (fungicidal/fungistatic) (Candida albicans (CAF-2)): fungicidal (An MFC/MIC ratio of less than four indicates that the compound is fungicidal)
MFC (Candida albicans (CAF-2)): 6 µg/mL
Ratio MFC/MIC (Candida albicans (CAF-2)): 2
MIC (Candida albicans (CAF-2)): 3.2 µg/mL
Activity (fungicidal/fungistatic) (Candida apicola): fungicidal (An MFC/MIC ratio of less than four indicates that the compound is fungicidal)
MIC-50 (Candida apicola): 3.2 µg/mL
Ratio MFC/MIC (Candida apicola): 1
MFC (Candida apicola): 3.2 µg/mL
Activity (fungicidal/fungistatic) (Candida glabrata): fungicidal (An MFC/MIC ratio of less than four indicates that the compound is fungicidal)
Ratio MFC/MIC (Candida glabrata): 2
MFC (Candida glabrata): 12.5 µg/mL
MIC (Candida glabrata): 6.2 µg/mL
Activity (fungicidal/fungistatic) (Candida lusitaniae): fungicidal (An MFC/MIC ratio of less than four indicates that the compound is fungicidal)
Ratio MFC/MIC (Candida lusitaniae): 1
MFC (Candida lusitaniae): 3.2 µg/mL
MIC (Candida lusitaniae): 3.2 µg/mL
Activity (fungicidal/fungistatic) (Candida tropicalis): fungicidal (An MFC/MIC ratio of less than four indicates that the compound is fungicidal)
MFC (Candida tropicalis): 3.2 µg/mL
Ratio MFC/MIC (Candida tropicalis): 1
MIC (Candida tropicalis): 3.2 µg/mL
MFC (Candidia parapsilosis): 3.2 µg/mL
Activity (fungicidal/fungistatic) (Candidia parapsilosis): fungicidal (An MFC/MIC ratio of less than four indicates that the compound is fungicidal)
Ratio MFC/MIC (Candidia parapsilosis): 1
MIC (Candidia parapsilosis): 3.2 µg/mL
MFC [1]: 3.2 µg/mL (≈ 10.2 µM)
Activity (fungicidal/fungistatic) [1]: fungicidal (An MFC/MIC ratio of less than four indicates that the compound is fungicidal)
Ratio MFC/MIC [1]: 2
MIC [1]: 1.6 µg/mL (≈ 5.12 µM)
MIC50 (C. albicans Mutants; C. albicans strain CAF-2): 3 µg/mL (≈ 9.6 µM)
MIC50 (C. albicans Mutants; C. albicans strain CHK11): 3 µg/mL (≈ 9.6 µM)
MIC50 (C. albicans Mutants; C. albicans strain CHK21): 3 µg/mL (≈ 9.6 µM)
MIC50 (C. albicans Mutants; C. albicans strain CHK23): 3 µg/mL (≈ 9.6 µM)
MIC50 (C. albicans Mutants; C. albicans strain GOA31): 6 µg/mL (≈ 19.2 µM)
MIC50 (C. albicans Mutants; C. albicans strain GOA32): 3 µg/mL (≈ 9.6 µM)
MIC50 ([2]; C. albicans CS#01, first clinical strain): 3 µg/mL (≈ 9.6 µM)
MIC50 ([2]; C. albicans CS#02, second clinical strain): 3 µg/mL (≈ 9.6 µM)
MIC50 ([2]; Strain #1, fluconazole sensitive Candida albicans strain): 3 µg/mL (≈ 9.6 µM)
MIC50 ([2]; Strain #17, fluconazole resistant Candida albicans strain): 6 µg/mL (≈ 19.2 µM)
Percentage Viability (Huh7 cells; 3.3 μg/mL (approx 1X MIC)): >100%
Percentage Viability (Huh7 cells; 10 μg/mL (approx 3X MIC)): >100%
Percentage Viability (Huh7 cells; 33 μg/mL (approx 10X MIC)): >100%
Percentage Viability (Huh7 cells; 100 μg/mL (approx 30X MIC)): 83%
Toxicity to mammalian cell lines (MTT assay) (Huh7 or HepG2 cell line): minimally toxic
